Laboratory results reported in PubChem BioAssay (NCI).
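96-well plates; 48 h exposure; 5 concentrations. Endpoints by linear interpolation between flanking doses. Not reached: highest tested concentration assigned. The concentration for 50% growth inhibition is given as GI50. TGI denotes the concentration required for complete inhibition of growth.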

Tests used:
Experiment in all cases: DTP human tumour cell line panel, 48 h
786-0 renal = test system: 786-0 renal
A498 renal = test system: A498 renal
A549 NSCLC = test system: A549 NSCLC
ACHN renal = test system: ACHN renal
BT-549 breast = test system: BT-549 breast
CAKI-1 renal = test system: CAKI-1 renal
CCRF-CEM leukemia = test system: CCRF-CEM leukemia
COLO 205 colon = test system: COLO 205 colon
DU-145 prostate = test system: DU-145 prostate
EKVX NSCLC = test system: EKVX NSCLC
HCC-2998 colon = test system: HCC-2998 colon
HCT-116 colon = test system: HCT-116 colon
HCT-15 colon = test system: HCT-15 colon
HL-60(TB) leukemia = test system: HL-60(TB) leukemia
HOP-62 NSCLC = test system: HOP-62 NSCLC
HOP-92 NSCLC = test system: HOP-92 NSCLC
HS 578T breast = test system: HS 578T breast
HT29 colon = test system: HT29 colon
IGROV1 ovarian = test system: IGROV1 ovarian
KM12 colon = test system: KM12 colon
LOX IMVI melanoma = test system: LOX IMVI melanoma
M14 melanoma = test system: M14 melanoma
MALME-3M melanoma = test system: MALME-3M melanoma
MCF7 breast = test system: MCF7 breast
MDA-MB-231 breast = test system: MDA-MB-231 breast
MDA-MB-435 = test system: MDA-MB-435
MDA-MB-468 breast = test system: MDA-MB-468 breast
MOLT-4 leukemia = test system: MOLT-4 leukemia
NCI-H226 lung = test system: NCI-H226 lung
NCI-H23 lung = test system: NCI-H23 lung
NCI-H522 lung = test system: NCI-H522 lung
NCI/ADR-RES ovarian = test system: NCI/ADR-RES ovarian
OVCAR-3 ovarian = test system: OVCAR-3 ovarian
OVCAR-4 ovarian = test system: OVCAR-4 ovarian
OVCAR-5 ovarian = test system: OVCAR-5 ovarian
OVCAR-8 ovarian = test system: OVCAR-8 ovarian
PC-3 prostate = test system: PC-3 prostate
RPMI-8226 leukemia = test system: RPMI-8226 leukemia
RXF 393 renal = test system: RXF 393 renal
SF-268 CNS = test system: SF-268 CNS
SF-295 CNS = test system: SF-295 CNS
SF-539 CNS = test system: SF-539 CNS
SK-MEL-2 melanoma = test system: SK-MEL-2 melanoma
SK-MEL-28 melanoma = test system: SK-MEL-28 melanoma
SK-MEL-5 melanoma = test system: SK-MEL-5 melanoma
SK-OV-3 ovarian = test system: SK-OV-3 ovarian
SN12C renal = test system: SN12C renal
SNB-19 CNS = test system: SNB-19 CNS
SNB-75 CNS = test system: SNB-75 CNS
SR leukemia = test system: SR leukemia
SW-620 colon = test system: SW-620 colon
T-47D breast = test system: T-47D breast
TK-10 renal = test system: TK-10 renal
U251 CNS = test system: U251 CNS
UACC-257 melanoma = test system: UACC-257 melanoma
UACC-62 melanoma = test system: UACC-62 melanoma
UO-31 renal = test system: UO-31 renal

Nc1cc(-c2c[nH]c3ccc(Br)cc23)nc2cc(-c3c[nH]c4ccccc34)nn12
GI50 (786-0 renal): 1.63 µM | TGI (786-0 renal): 3.54 µM | GI50 (A498 renal): 2.42 µM | TGI (A498 renal): 7.74 µM | GI50 (A549 NSCLC): 2.91 µM | TGI (A549 NSCLC): 11.5 µM | GI50 (ACHN renal): 2.77 µM | TGI (ACHN renal): 9.2 µM | GI50 (BT-549 breast): 9.32 µM | TGI (BT-549 breast): 21.8 µM | GI50 (CAKI-1 renal): 2.2 µM | TGI (CAKI-1 renal): 7.33 µM | GI50 (CCRF-CEM leukemia): 3.05 µM | TGI (CCRF-CEM leukemia): 13.2 µM | GI50 (COLO 205 colon): 1.73 µM | TGI (COLO 205 colon): 3.33 µM | GI50 (DU-145 prostate): 3.88 µM | TGI (DU-145 prostate): 14.4 µM | GI50 (EKVX NSCLC): 2.92 µM | TGI (EKVX NSCLC): 10.9 µM | GI50 (HCC-2998 colon): 1.85 µM | TGI (HCC-2998 colon): 3.61 µM | GI50 (HCT-116 colon): 1.77 µM | TGI (HCT-116 colon): 3.39 µM | GI50 (HCT-15 colon): 1.74 µM | TGI (HCT-15 colon): 3.62 µM | GI50 (HL-60(TB) leukemia): 2.84 µM | TGI (HL-60(TB) leukemia): 12.7 µM | GI50 (HOP-62 NSCLC): 3.52 µM | TGI (HOP-62 NSCLC): 12.2 µM | GI50 (HOP-92 NSCLC): 2.06 µM | TGI (HOP-92 NSCLC): 6.08 µM | GI50 (HS 578T breast): 3.11 µM | TGI (HS 578T breast): 9.62 µM | GI50 (HT29 colon): 1.98 µM | TGI (HT29 colon): 4.08 µM | GI50 (IGROV1 ovarian): 3.55 µM | TGI (IGROV1 ovarian): 14.6 µM | GI50 (KM12 colon): 2.21 µM | TGI (KM12 colon): 5.31 µM | GI50 (LOX IMVI melanoma): 1.69 µM | TGI (LOX IMVI melanoma): 3.07 µM | GI50 (M14 melanoma): 2.09 µM | TGI (M14 melanoma): 5.05 µM | GI50 (MALME-3M melanoma): 1.91 µM | TGI (MALME-3M melanoma): 3.64 µM | GI50 (MCF7 breast): 2.05 µM | TGI (MCF7 breast): 5 µM | GI50 (MDA-MB-231 breast): 1.9 µM | TGI (MDA-MB-231 breast): 3.63 µM | GI50 (MDA-MB-435): 2.95 µM | TGI (MDA-MB-435): 9.98 µM | GI50 (MDA-MB-468 breast): 1.75 µM | TGI (MDA-MB-468 breast): 4.13 µM | GI50 (MOLT-4 leukemia): 2.4 µM | TGI (MOLT-4 leukemia): 6.72 µM | GI50 (NCI-H226 lung): 6.13 µM | TGI (NCI-H226 lung): 41.4 µM | GI50 (NCI-H23 lung): 2.36 µM | TGI (NCI-H23 lung): 6.64 µM | GI50 (NCI-H522 lung): 1.68 µM | TGI (NCI-H522 lung): 3.51 µM | GI50 (NCI/ADR-RES ovarian): 3.33 µM | TGI (NCI/ADR-RES ovarian): 13.3 µM | GI50 (OVCAR-3 ovarian): 3.44 µM | TGI (OVCAR-3 ovarian): 14 µM | GI50 (OVCAR-4 ovarian): 3.97 µM | TGI (OVCAR-4 ovarian): 19 µM | GI50 (OVCAR-5 ovarian): 2.08 µM | TGI (OVCAR-5 ovarian): 5.36 µM | GI50 (OVCAR-8 ovarian): 4.06 µM | TGI (OVCAR-8 ovarian): 18.1 µM | GI50 (PC-3 prostate): 2.57 µM | TGI (PC-3 prostate): 8.4 µM | GI50 (RPMI-8226 leukemia): 2.88 µM | TGI (RPMI-8226 leukemia): 9.09 µM | GI50 (RXF 393 renal): 2.66 µM | TGI (RXF 393 renal): 7.87 µM | GI50 (SF-268 CNS): 3.72 µM | TGI (SF-268 CNS): 18.5 µM | GI50 (SF-295 CNS): 1.9 µM | TGI (SF-295 CNS): 4.01 µM | GI50 (SF-539 CNS): 1.74 µM | TGI (SF-539 CNS): 3.38 µM | GI50 (SK-MEL-2 melanoma): 2.44 µM | TGI (SK-MEL-2 melanoma): 7.13 µM | GI50 (SK-MEL-28 melanoma): 2.23 µM | TGI (SK-MEL-28 melanoma): 5.71 µM | GI50 (SK-MEL-5 melanoma): 2.7 µM | TGI (SK-MEL-5 melanoma): 7.62 µM | GI50 (SK-OV-3 ovarian): 7.75 µM | TGI (SK-OV-3 ovarian): 21 µM | GI50 (SN12C renal): 4.03 µM | TGI (SN12C renal): 16.4 µM | GI50 (SNB-19 CNS): 3.67 µM | TGI (SNB-19 CNS): 14.1 µM | GI50 (SNB-75 CNS): 2.17 µM | TGI (SNB-75 CNS): 11.3 µM | GI50 (SR leukemia): 2.23 µM | TGI (SR leukemia): > 100 µM | GI50 (SW-620 colon): 1.87 µM | TGI (SW-620 colon): 3.7 µM | GI50 (T-47D breast): 3.15 µM | TGI (T-47D breast): 20.3 µM | GI50 (TK-10 renal): 2.56 µM | TGI (TK-10 renal): 12 µM | GI50 (U251 CNS): 2 µM | TGI (U251 CNS): 4.57 µM | GI50 (UACC-257 melanoma): 3.86 µM | TGI (UACC-257 melanoma): 15.1 µM | GI50 (UACC-62 melanoma): 1.88 µM | TGI (UACC-62 melanoma): 4.35 µM | GI50 (UO-31 renal): 2.74 µM | TGI (UO-31 renal): 11.8 µM
